The values that follow come from patent US11840527B2, “Non-fused thiophene derivatives and their uses” (ENYO PHARMA, priority 2018, dated 2023).

The target of assay [1] is T1, CISD3 Gene Product (Miner2) (Homo sapiens, UniProt P0C7P0).
T1 sequence (P0C7P0 15-127): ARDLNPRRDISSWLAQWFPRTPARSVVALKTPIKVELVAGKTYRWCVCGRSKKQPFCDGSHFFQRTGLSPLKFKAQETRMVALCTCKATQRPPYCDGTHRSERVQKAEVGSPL
Nature of the assay: Stability of Fe-S cluster binding of purified NEET protein (absorbance 458 nm). The assay is classed as biochemical. The conditions noted are these: for Residual cluster bound at end of experiment (Percentage Absorbance 458 nm at time zero): CISD3 gene product, at 180 minutes, vehicle control (DMSO) 11%; for Residual cluster bound at end of experiment (Percentage Absorbance 458 nm at time zero) / Time (in minutes) to achieve 50% loss of bound cluster (Absorbance 458 nm): 60 μM compound; for Stabiliser of Fe—S cluster binding (time to 50% loss increased by more than 25% vs control) / Time (in minutes) to achieve 50% loss of bound cluster (Absorbance 458 nm): Miner2; for Stabiliser of Fe—S cluster binding (time to 50% loss increased by more than 25% vs control): at the concentrations tested; for Time (in minutes) to achieve 50% loss of bound cluster (Absorbance 458 nm): pH 6, 37° C., 20 μM protein, run time 180 minutes, vehicle control 60. The protocol:
(§1) The modulator effect on the NEET proteins encoded by human CISD1, CISD2, and CISD3 genes by the compounds of the invention has been tested and is reported below. Particularly, the biochemical function of the NEET proteins is measured by the stability of Fe—S cluster binding of the purified NEET proteins.
(§2) The Fe—S cluster binding capacity of NEET proteins is known to be coordinated by four amino-acids in a stretch of 16 (three Cysteine and one Histidine). As the lability of the Fe—S cluster of NEET proteins is sensitive to the environment, cluster stability measurements are one of the measures of interactions of NEET proteins with small molecules and compounds. NEET protein/2Fe-2S cluster stability can be assessed by monitoring the decay in absorbance of its characteristic 458-nm peak (characteristic of the oxidized 2Fe-2S cluster) over time. Each NEET protein (mitoNEET, NAF-1 and Miner 2) was tested for its Fe—S binding in the absence or presence of a compound according to the invention (see table 3 below). The rate of cluster release (time in minutes to achieve 50% loss of bound Fe—S cluster) was compared for each NEET protein in the presence of one of the compounds of the invention (in a 1:3 protein:compound molar ratio) relative to each protein alone.
(§3) At pH 6, all the three NEET proteins (mitoNEET, NAF-1 and Miner 2) have a characteristic rate of loss of the bound Fe—S cluster that can be measured by the decrease of absorbance at wavelength 458 nm over time, using a spectrophotometer. Thus, Bis-Tris buffer (100 mM Bis-Tris pH6, 100 mM Nacl) was used at pH 6 to dilute either DMSO (Blank sample: Bis-Tris Buffer pH 6, 66 μM DMSO), DMSO and one of the three NEET proteins (Control sample: Bis-Tris Buffer pH 6, 66 μM DMSO, 20 μM purified NEET protein) or DMSO, one of the three NEET proteins and a compound of the invention (Test sample: Bis-Tris Buffer pH 6, 66 μM DMSO, 20 μM purified NEET protein, 60 μM compound of the invention).
(§4) A reaction mix containing DMSO diluted in the Bis-Tris Buffer with or without a compound of the invention was prepared. The purified NEET protein was the last component added to the reaction mix which was then aliquoted into 4 replicates in 96 wells plates. The absorbance at wavelength 458 nm was taken at 5 minutes intervals at 37° C. with a spectrofluorimeter. The assay run time for CISD2 gene product (NAF-1) was 500 minutes and 180 minutes for both the CISD 1 gene product (mitoNEET) and the CISD3 gene product (Miner 2).
(§5) In addition to time monitoring, residual bound Fe—S cluster to NEET protein was measured at the final point of the spectrometry assay for each Test sample and compared to the Control sample data (in parenthesis table 3). This residual binding is measured by the differential percentage between the absorbance 458 nm at time zero and the absorbance 458 nm at the end of the experiment (i.e. respectively 500 or 180 minutes as described hereabove), showing the percentage of NEET protein still able to bind Fe—S cluster.
(§6) Analysis of the absorbance enables the time for which 50% loss of bound Fe—S cluster is reached (i.e. a 50% absorbance decrease at 458 nm) for each Test sample and each Control sample (in parenthesis table 3) to be determined. The data are then compared to determine whether the compound of the invention stabilizes or destabilizes the NEET protein/Fe—S cluster binding.
(§7) Stabilisers of Fe—S cluster binding by the NEET proteins slow the release of bound Fe—S (i.e. increase the time needed to reach 50% Fe—S cluster bound loss by more than 25% for the Test sample compared to the Control sample). As illustrated by table 3, at the concentrations tested, stabilisers of CISD1 Gene Product (mitoNEET) are the compounds #9, #18, #26, #2, #1, and #42. Stabilisers of CISD2 Gene Product (NAF-1) are the compounds #2, #1, and #40. Stabilisers of CISD3 Gene Product (Miner2) are the compounds #9, #18, #26, #2, #1, and #42.

Assay [2] has as its target T2, CISD2 Gene Product (NAF-1) (Homo sapiens, UniProt Q8N5K1).
T2 sequence (Q8N5K1 57-135 limits assumed): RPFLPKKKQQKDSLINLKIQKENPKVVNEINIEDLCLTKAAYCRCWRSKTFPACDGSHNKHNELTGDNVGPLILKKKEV
The assay is described as above. The assay is classed as biochemical. Particulars: for Residual cluster bound at end of experiment (Percentage Absorbance 458 nm at time zero): at 500 minutes, vehicle control 3%; for Residual cluster bound at end of experiment (Percentage Absorbance 458 nm at time zero) / Time (in minutes) to achieve 50% loss of bound cluster (Absorbance 458 nm): 60 μM compound; for Stabiliser of Fe—S cluster binding (time to 50% loss increased by more than 25% vs control): at the concentrations tested; for Time (in minutes) to achieve 50% loss of bound cluster (Absorbance 458 nm): pH 6, 37° C., 20 μM protein, run time 500 minutes, vehicle control 310. The protocol: as §1, §2, §3, §4, §5, §6, §7

Assay [3] deals with T3, CISD1 Gene Product (mitoNEET) (Homo sapiens, UniProt Q9NZ45).
T3 sequence (Q9NZ45 33-108 limits assumed): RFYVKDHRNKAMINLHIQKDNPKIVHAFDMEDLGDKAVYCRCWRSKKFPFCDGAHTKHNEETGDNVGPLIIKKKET
Described as above. The assay is classed as biochemical. Particulars: for Residual cluster bound at end of experiment (Percentage Absorbance 458 nm at time zero): at 180 minutes, vehicle control 16%; for Residual cluster bound at end of experiment (Percentage Absorbance 458 nm at time zero) / Time (in minutes) to achieve 50% loss of bound cluster (Absorbance 458 nm): 60 μM compound; for Stabiliser of Fe—S cluster binding (time to 50% loss increased by more than 25% vs control): at the concentrations tested; for Time (in minutes) to achieve 50% loss of bound cluster (Absorbance 458 nm): pH 6, 37° C., 20 μM protein, run time 180 minutes, vehicle control 80. The protocol:
as §1, §2, §3, §4, §5, §6, §7

The test system of assay [4] is H1N1 (influenza A/New Caledonia/20/99). Put plainly: Antiviral effect on A549 cells infected with H1N1. The assay is classed as cell-based, H1N1 A/New Caledonia/20/99 virus. Particulars: Influenza A virus, MOI 0.1, 48 h post-infection, MUNANA neuraminidase readout. The protocol: The antiviral effect of the compounds of the invention have been tested on A549 cell lines infected with H1N1 (influenza A/New Caledonia/20/99).
Human A549 cells (80,000 cells/well in a 96 well plate) were treated with a range of concentration of test compounds and immediately infected by H1N1 A/New Caledonia/20/99 virus (clinical isolate) at MOI of 0.1 in DMEM/1% Penicillin/streptomycin supplemented with […] TPCK trypsin (Sigma) and incubated at 37° C. in 5% CO2. 48 h post-infection, supernatants (25 μl) were collected and transferred into a 96-well black flat-bottom plate, mixed with 25 μl PBS with Ca++/Mg++ (Thermo Fisher) and 50 μl of 2′-(4-Methylumbelliferyl)-ax-D-N-acetylneuraminic acid sodium salt hydrate stock-solution (20 μM, MUNANA, Sigma). Plates were incubated 1h at 37° C. and reaction is stopped by adding 100 μl of Stop Solution (glycine 0.1 M pH10.7/25% ethanol). The amount of fluorescent product released by MUNANA hydrolysis (4-MU) was measured in a Tecan spectrophotometer with excitation and emission wavelengths of 365 and 450 nm respectively.

The subject of assay [5] is NFκB. Put plainly: NFκB reporter assay, TNFα stimulation of A549 reporter cells. The assay is classed as cell-based. The conditions noted are these: Homo sapiens; A549 NFκB-NanoLuciferase reporter cells, 4 ng/ml TNFα, 6 hours. From the text:
Compounds of the present invention have been tested for their capacity to inhibit NFκB.
The NFκB reporter construct was made by cloning 5 NFκB responsive elements upstream of a NanoLuciferase reporter gene flanked by AAVS1 genomic sequences.
NFκB Responsive element fused with NanoLuciferase and SV40 late Poly(A) signal was amplified from pNL3.2-NFκB-Nluc (Promega) using NFκB-NLUC-F and NFκB-NLUC-R primers and inserted by Infusion (TaKaRa) in AAVS1 SA-2A-puro-pA donor plasmid (Hockemeyer et al, Nat Biotechnol. 2009, 27, 851-7) digested by Sall. pCRISPR AAVS1-T2 expressing a guide RNA (gRNA) to target human AAVS1 (T2 target sequence) was constructed by inserting AAVS1-T2A hybridized primers in pLentiCRISPR v2-blast (Sanjana et al, Nat Methods. 2014, 11, 783-4) digested by Bsmb1.
A549 cells were transfected by the plasmids and puromycine selected for 5 days (1 μg mL-1). Then clones were obtained by limiting dilution and selected to maximize TNFα dependent NFkB-NanoLuciferase induction.
The reporter cells were seeded on a 96-well plate for overnight with DMEM including 10% FBS. Test compounds were added at varying concentrations. The cells then were treated with 4 ng/ml TNFα (Peprotech, ref E251) in DMEM+10% FBS. NanoGlo luciferase assay (Promega) was carried out 6 hours later. Luminescence was measured using a Spark 20M spectrofluorimeter (Tecan). Values were normalized to the luminescence measured in untreated cells.

Molecules are shown by their SMILES.

Take `O=C(Nc1scc(-c2ccc(Cl)cc2)c1C(=O)O)c1ccccc1` [Compound #1, 2-Benzamido-4-(4-chlorophenyl)thiophene-3-carboxylic acid]: the “Residual cluster bound at end of experiment (Percentage Absorbance 458 nm at time zero)” value is 47% (11%) in assay [1], 13% (3%) in assay [2] and 29% (16%) in assay [3]. Besides, the “Stabiliser of Fe—S cluster binding (time to 50% loss increased by more than 25% vs control)” value is reported as “Stabilisers” in assay [1], “Stabilisers” in assay [2] and “stabilisers” in assay [3]. Also, the “Time (in minutes) to achieve 50% loss of bound cluster (Absorbance 458 nm)” value in assay [1] is recorded as 85 (60) minutes; in assay [2], 425 (310) minutes; in assay [3], 100 (80) minutes. In assay [4], this compound displayed an IC50 of 298 nM.
`CC1(c2csc(NC(=O)c3ccc(NCC4CCOCC4)cc3)c2C(=O)O)CC1` [Compound #111, 4-(1-Methylcyclopropyl)-2-[[4-(tetrahydropyran-4-ylmethylamino)benzoyl]amino]thiophene-3-carboxylic acid]: the IC50 in assay [4] stood at 200 nM. The EC50 in assay [5] was 2200 nM.
Regarding `O=C(Nc1scc(C2CCCCC2)c1C(=O)O)c1ccccc1` [Compound #26, 2-Benzamido-4-cyclohexyl-thiophene-3-carboxylic acid], in assay [1], the “Residual cluster bound at end of experiment (Percentage Absorbance 458 nm at time zero)” value is reported as 52% (11%), the “Stabiliser of Fe—S cluster binding (time to 50% loss increased by more than 25% vs control)” value is recorded as “Stabilisers” and the “Time (in minutes) to achieve 50% loss of bound cluster (Absorbance 458 nm)” value is “during 180 minutes”. Also, in assay [2], the “Residual cluster bound at end of experiment (Percentage Absorbance 458 nm at time zero)” value is listed as 18% (3%) and the “Time (in minutes) to achieve 50% loss of bound cluster (Absorbance 458 nm)” value is listed as 355 (310) minutes. Moreover, in assay [3], the “Residual cluster bound at end of experiment (Percentage Absorbance 458 nm at time zero)” value is given as 36% (16%), the “Stabiliser of Fe—S cluster binding (time to 50% loss increased by more than 25% vs control)” value is on record as “stabilisers” and the “Time (in minutes) to achieve 50% loss of bound cluster (Absorbance 458 nm)” value is 105 (80) minutes. The same compound had an IC50 in assay [4] of 745 nM.
For the compound `Cc1c(-c2ccccc2)sc(NC(=O)c2ccccc2)c1C(=O)O` [Compound #40, 2-Benzamido-4-methyl-5-phenyl-thiophene-3-carboxylic acid], the “Residual cluster bound at end of experiment (Percentage Absorbance 458 nm at time zero)” value in assay [1] was 24% (11%); in assay [2], 9% (3%); in assay [3] it was 6% (16%). The figures for the “Time (in minutes) to achieve 50% loss of bound cluster (Absorbance 458 nm)” value in assay [1], in assay [2] and in assay [3] were 70 (60) minutes, 390 (310) minutes and 95 (80) minutes, respectively. Also, the “Stabiliser of Fe—S cluster binding (time to 50% loss increased by more than 25% vs control)” value in assay [2] is reported as “Stabilisers”. The compound further showed an IC50 in assay [4] of 2470 nM.
On to `Cc1ccccc1C(=O)Nc1scc(-c2ccccc2)c1C(=O)O` [Compound #42, 2-[(2-Methylbenzoyl)amino]-4-phenyl-thiophene-3-carboxylic acid], for which, in assay [1], the “Residual cluster bound at end of experiment (Percentage Absorbance 458 nm at time zero)” value is 37% (11%), the “Stabiliser of Fe—S cluster binding (time to 50% loss increased by more than 25% vs control)” value is given as “Stabilisers” and the “Time (in minutes) to achieve 50% loss of bound cluster (Absorbance 458 nm)” value is reported as 75 (60) minutes. Moreover, in assay [2], the “Residual cluster bound at end of experiment (Percentage Absorbance 458 nm at time zero)” value is recorded as 2% (3%) and the “Time (in minutes) to achieve 50% loss of bound cluster (Absorbance 458 nm)” value is 330 (310) minutes. In addition, in assay [3], the “Residual cluster bound at end of experiment (Percentage Absorbance 458 nm at time zero)” value was 24% (16%), the “Stabiliser of Fe—S cluster binding (time to 50% loss increased by more than 25% vs control)” value is “stabilisers” and the “Time (in minutes) to achieve 50% loss of bound cluster (Absorbance 458 nm)” value is listed as 100 (80) minutes. Besides, the IC50 in assay [4] is 5870 nM.
